The results in this text go back to patent US20250388582A1, “NOVEL BICYCLIC HETEROARYL COMPOUND AND USE THEREOF” (ILDONG PHARMACEUTICAL CO., LTD., priority 2022, published 2025).

This assay has as its target T1, human GST-PIKFYVE (Homo sapiens, UniProt Q9Y2I7).
T1 construct: GST; purchased Carna biosciences 11-118
Description: ADP-Glo kinase assay, enzyme inhibition activity against human PIKFYVE (Carna biosciences). The assay is classed as biochemical. The settings on record: inhibitory activity at final compound concentration 10 nM; 1 hour at room temperature. How it is done:
The enzyme inhibition activity values for the compounds according to Examples against human PIKFYVE were calculated using the ADP-Glo™ kinase assay service of Carna biosciences, Inc. The enzyme activity evaluation method provided by Carna biosciences Inc., is shown below.
Enzyme inhibition activity was evaluated by reacting the compounds according to Examples with human GST-PIKFYVE (11-118, Carna biosciences), which was purified using glutathione Sepharose chromatography. The reaction buffer used was composed of 50 mmol/L MOPS, 1 mmol/L DTT, and pH 7.2, and all reactions of the test distilled water were performed in the buffer.
Compounds were prepared as solutions in 100% DMSO as 100× stocks and adjusted to have a final sample concentration of 10 nM.
The substrate-enzyme reaction for PIKFYVE was performed by mixing 5 μL human GST-PIKFYVE, 5 μL compounds according to Examples, 5 μL enzyme substrate, and 5 μL purified ATP and reacting for 1 hour at room temperature. After the substrate-enzyme reaction, 20 μL ADP-Glo™ Reagent was added and reacted at room temperature for 40 minutes, then 40 μL Kinase Detection Reagent was added and reacted at room temperature for 40 minutes.
After completion of the reaction, the degree of enzyme activity inhibition was measured by luminescence. The fluorescence of the enzyme activity in the solvent control group […] was set to 100%, and the fluorescence of the enzyme activity in the solvent control group without compound treatment was set to 0%. The inhibitory activity of each compound according to Examples was calculated based on these values.
On the technique in general: ADP-Glo first removes unused ATP, then detects ADP through luciferase.

T1 sequence (Q9Y2I7 whole entry): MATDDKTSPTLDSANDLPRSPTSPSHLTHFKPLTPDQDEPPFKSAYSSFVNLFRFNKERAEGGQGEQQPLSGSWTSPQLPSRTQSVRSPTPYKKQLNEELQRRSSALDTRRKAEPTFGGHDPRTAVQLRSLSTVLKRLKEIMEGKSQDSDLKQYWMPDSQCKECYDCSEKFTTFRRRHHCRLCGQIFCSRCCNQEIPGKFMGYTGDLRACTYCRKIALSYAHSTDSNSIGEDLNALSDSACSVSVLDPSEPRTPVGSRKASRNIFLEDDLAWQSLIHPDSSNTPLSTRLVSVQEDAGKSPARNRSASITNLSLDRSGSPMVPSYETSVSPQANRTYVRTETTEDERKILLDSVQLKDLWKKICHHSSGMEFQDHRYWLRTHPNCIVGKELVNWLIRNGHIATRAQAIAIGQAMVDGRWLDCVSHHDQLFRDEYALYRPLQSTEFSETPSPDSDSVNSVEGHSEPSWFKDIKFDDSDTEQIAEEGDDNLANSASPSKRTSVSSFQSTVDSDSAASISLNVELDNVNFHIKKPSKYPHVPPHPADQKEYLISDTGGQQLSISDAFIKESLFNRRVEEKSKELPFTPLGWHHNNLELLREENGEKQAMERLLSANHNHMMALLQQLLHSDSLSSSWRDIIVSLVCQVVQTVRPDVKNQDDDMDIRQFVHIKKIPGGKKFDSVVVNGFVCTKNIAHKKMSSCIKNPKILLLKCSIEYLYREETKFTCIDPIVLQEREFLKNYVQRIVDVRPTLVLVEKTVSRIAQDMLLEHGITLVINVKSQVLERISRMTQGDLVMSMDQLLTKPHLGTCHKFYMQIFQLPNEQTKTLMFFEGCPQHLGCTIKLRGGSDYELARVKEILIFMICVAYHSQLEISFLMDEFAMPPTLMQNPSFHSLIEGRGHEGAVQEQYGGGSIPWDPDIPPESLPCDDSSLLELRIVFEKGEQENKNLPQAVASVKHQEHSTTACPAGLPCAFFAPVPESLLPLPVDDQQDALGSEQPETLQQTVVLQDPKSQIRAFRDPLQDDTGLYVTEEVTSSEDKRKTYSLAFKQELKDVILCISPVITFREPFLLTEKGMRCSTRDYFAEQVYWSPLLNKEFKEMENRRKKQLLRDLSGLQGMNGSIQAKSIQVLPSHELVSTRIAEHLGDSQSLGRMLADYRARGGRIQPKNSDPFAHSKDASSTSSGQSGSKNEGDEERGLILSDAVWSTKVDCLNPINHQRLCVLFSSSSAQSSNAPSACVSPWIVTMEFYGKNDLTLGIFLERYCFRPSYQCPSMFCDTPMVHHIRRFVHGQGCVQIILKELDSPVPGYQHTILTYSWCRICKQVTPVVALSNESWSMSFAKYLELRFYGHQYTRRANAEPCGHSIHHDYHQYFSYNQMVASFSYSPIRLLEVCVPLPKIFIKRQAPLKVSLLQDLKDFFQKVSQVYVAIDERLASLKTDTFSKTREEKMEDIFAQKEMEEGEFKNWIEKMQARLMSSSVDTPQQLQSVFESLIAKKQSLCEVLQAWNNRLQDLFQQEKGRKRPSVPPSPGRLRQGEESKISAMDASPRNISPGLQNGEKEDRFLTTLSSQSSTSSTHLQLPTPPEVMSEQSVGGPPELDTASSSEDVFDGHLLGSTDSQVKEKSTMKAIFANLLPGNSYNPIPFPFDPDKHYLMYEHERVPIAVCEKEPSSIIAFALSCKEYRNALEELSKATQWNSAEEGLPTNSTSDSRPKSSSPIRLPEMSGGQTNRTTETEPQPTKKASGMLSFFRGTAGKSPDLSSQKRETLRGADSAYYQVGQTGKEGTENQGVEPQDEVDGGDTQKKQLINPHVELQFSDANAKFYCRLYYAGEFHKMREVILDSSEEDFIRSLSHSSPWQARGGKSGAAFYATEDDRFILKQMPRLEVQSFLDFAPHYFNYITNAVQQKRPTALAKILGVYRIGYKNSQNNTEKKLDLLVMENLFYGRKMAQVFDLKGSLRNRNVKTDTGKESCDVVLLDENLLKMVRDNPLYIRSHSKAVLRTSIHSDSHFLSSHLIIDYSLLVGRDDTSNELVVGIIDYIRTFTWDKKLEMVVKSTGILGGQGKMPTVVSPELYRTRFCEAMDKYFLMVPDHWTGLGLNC

In the case of `Cc1cccc(/C=N/Nc2nc(N3C[C@H]4C[C@@H]3CO4)nc3c2ncn3-c2cccnc2)c1` [Example 98, (1R,4R)-5-(6-(2-(3-methylbenzylidene)hydrazinyl)-9-(pyridin-3-yl)-9H-purin-2-yl)-oxa-5-azabicyclo[2.2.1]heptane], the “ADP-Glo kinase assay (%, 10 nM)” value worked out at 91.62%.

Turning to `COc1ccccc1Nc1nc(N2CCOCC2)nc2c1ncn2/N=C/c1cccc(C)c1` [Example 187, (E)-N-(2-methoxyphenyl)-9-((3-methylbenzylidene)amino)-2-morpholino-9H-purin-6-amine], the “ADP-Glo kinase assay (%, 10 nM)” value was determined as 52.07%.

As to `Cc1cccc(/C=N/Nc2nc(N3CCOCC3)nc3c2nc(C)n3-c2cc(C)n(C)n2)c1` [Example 153, (E)-4-(9-(1,5-dimethyl-1H-pyrazol-3-yl)-8-methyl-6-(2-(3-methylbenzylidene)hydrazinyl)-9H-purin-2-yl)morpholine], the “ADP-Glo kinase assay (%, 10 nM)” value came to 63.58%.

Take `COc1ccc(Nc2nc(N3CCOCC3)nc3c2ncn3/N=C/c2cccc(C)c2)cc1` [Example 178, (E)-N-(4-methoxyphenyl)-9-((3-methylbenzylidene)amino)-2-morpholino-9H-purin-6-amine]: the “ADP-Glo kinase assay (%, 10 nM)” value is reported as 55.44%.

On to `Cc1cccc(/C=N/n2cnc3c(-n4ccnc4)nc(N4CCOCC4)nc32)c1` [Example 176, (E)-N-(6-(1H-imidazol-1-yl)-2-morpholino-9H-purin-9-yl)-1-(m-tolyl)methanimine], for which the “ADP-Glo kinase assay (%, 10 nM)” value is given as 56.91%.

Take `C(=N\n1cnc2c(Nc3ccncc3)nc(N3CCOCC3)nc21)/c1ccccc1` [Example 169, (E)-9-(benzylideneamino)-2-morpholino-N-(pyridin-4-yl)-9H-purin-6-amine]: the “ADP-Glo kinase assay (%, 10 nM)” value was 89.56%.

Regarding `Cc1cccc(/C=N/Nc2nc(N3CCOCC3)nc3c2ncn3CC(=O)c2cccc(OC(F)(F)F)c2)c1` [Example 50, (E)-2-(6-(2-(3-methylbenzylidene)hydrazinyl)-2-morpholino-9H-purin-9-yl)-1-(3-(trifluoromethoxy)phenyl)ethan-1-one], the “ADP-Glo kinase assay (%, 10 nM)” value is reported as 54.37%.

Consider `COc1ccc(-n2cnc3c(-n4ccc(-c5cccc(C)c5)n4)nc(N4CCOCC4)nc32)cc1` [Example 134, 4-(9-(4-methoxyphenyl)-6-(3-(m-tolyl)-1H-pyrazol-1-yl)-9H-purin-2-yl)morpholine], for which the “ADP-Glo kinase assay (%, 10 nM)” value was found to be 59.84%.

For `Cc1cccc(/C=N/n2c(C)nc3c(OCCc4ccccn4)nc(N4CCOCC4)nc32)c1` [Example 208, (E)-N-8-methyl-2-morpholino-(6-(2-pyridin-2-yl)ethoxy)-9H-purin-9-yl-1-(m-tolyl)methanimine], the “ADP-Glo kinase assay (%, 10 nM)” value was determined as 71.38%.

As to `Cc1cccc(/C=N/Nc2nc(N3CCOCC3)nc3c2ncn3-c2cccc(C(F)(F)F)c2)c1` [Example 130, (E)-4-(6-(2-(3-methylbenzylidene)hydrazinyl)-9-(3-(trifluoromethyl)phenyl)-9H-purin-2-yl)morpholine], the “ADP-Glo kinase assay (%, 10 nM)” value is 69.14%.

Consider `Cc1ccc(Nc2nc(N3CCOCC3)nc3c2ncn3/N=C/c2cccc(C)c2)cc1` [Example 181, (E)-9-((3-methylbenzylidene)amino)-2-morpholino-N-(p-tolyl)-9H-purin-6-amine], for which the “ADP-Glo kinase assay (%, 10 nM)” value is given as 53.92%.

Take `Cc1cccc(/C=N/Nc2nc(N3CCOCC3)nc3c2ncn3-c2nccs2)c1` [Example 117, (E)-4-(6-(2-(3-methylbenzylidene)hydrazinyl)-9-(thiazol-2-yl)-9H-purin-2-yl)morpholine]: the “ADP-Glo kinase assay (%, 10 nM)” value turned out to be 67.79%.

As for `Cc1cccc(/C=N/n2cnc3c(Nc4cc(C)n(C)n4)nc(N4CCOCC4)nc32)c1` [Example 188, (E)-N-(1,5-dimethyl-1H-pyrazol-3-yl)-9-((3-methylbenzylidene)amino)-2-morpholino-9H-purin-6-amine], the “ADP-Glo kinase assay (%, 10 nM)” value was determined as 65.93%.

Take `COc1ccc(-n2c(C)nc3c(N/N=C/c4cccc(C)c4)nc(N4CCOCC4)nc32)cc1` [Example 161, (E)-4-(9-(4-methoxyphenyl)-8-methyl-6-(2-(3-methylbenzylidene)hydrazinyl)-9H-purin-2-yl)morpholine]: the “ADP-Glo kinase assay (%, 10 nM)” value is recorded as 79.72%.

On to `Cc1cccc(/C=N/Nc2nc(N3CCOCC3)nc3c2nc(C)n3CC(=O)c2ccccc2)c1` [Example 156, (E)-2-(8-methyl-6-(2-(3-methylbenzylidene)hydrazinyl)-2-morpholino-9H-purin-9-yl)-1-phenylethan-1-one], for which the “ADP-Glo kinase assay (%, 10 nM)” value came out at 65.90%.

Take `Cc1cccc(/C=N/Nc2nc(N3CCOCC3)nc3c2ncn3C2CN(C(=O)c3cccnc3)C2)c1` [Example 82, (E)-3-(6-(2-(3-methylbenzylidene)hydrazinyl)-2-morpholino-9H-purin-9-yl)azetidin-1-yl (pyridin-3-yl)methanone]: the “ADP-Glo kinase assay (%, 10 nM)” value turned out to be 60.95%.

Regarding `Cc1cccc(/C=N/n2c(C)nc3c(Nc4ccncc4)nc(N4CCOCC4)nc32)c1` [Example 207, (E)-8-methyl-9-((3-methylbenzylidene)amino)-2-morpholino-N-(pyridin-4-yl)-9H-purin-6-amine], the “ADP-Glo kinase assay (%, 10 nM)” value came to 75.57%.

With `Cc1cccc(/C=N/Nc2nc(N3CCOCC3)nc3c2nc(C)n3CC(=O)c2ccncc2)c1` [Example 159, (E)-2-(8-methyl-6-(2-(3-methylbenzylidene)hydrazinyl)-2-morpholino-9H-purin-9-yl)-1-(pyridin-4-yl)ethan-1-one], the “ADP-Glo kinase assay (%, 10 nM)” value came out at 65.33%.

Take `Cc1cccc(/C=N/n2cnc3c(Nc4cc(C)no4)nc(N4CCOCC4)nc32)c1` [Example 198, (E)-3-methyl-N-(9-((3-methylbenzylidene)amino)-2-morpholino-9H-purin-6-yl)isoxazol-5-amine]: the “ADP-Glo kinase assay (%, 10 nM)” value amounted to 75.59%.

Turning to `Cc1cccc(/C=N/Nc2nc(N3CCOCC3)nc3c2nc(C)n3-c2cccc(Cl)c2)c1` [Example 163, (E)-4-(9-(3-chlorophenyl)-8-methyl-6-(2-(3-methylbenzylidene)hydrazinyl)-9H-purin-2-yl)morpholine], the “ADP-Glo kinase assay (%, 10 nM)” value came to 54.29%.

`Cc1ccccc1/C=N/n1cnc2c(Nc3ccncc3)nc(N3CCOCC3)nc21` [Example 167, (E)-9-((2-methylbenzylidene)amino)-2-morpholino-N-(pyridin-4-yl)-9H-purin-6-amine]: the “ADP-Glo kinase assay (%, 10 nM)” value was found to be 68.47%.

As for `Cc1cccc(/C=N/Nc2nc(N3CCOCC3)nc3c2ncn3-c2ncccc2C)c1` [Example 142, (E)-4-(6-(2-(3-methylbenzylidene)hydrazinyl)-9-(3-methylpyridin-2-yl)-9H-purin-2-yl)morpholine], the “ADP-Glo kinase assay (%, 10 nM)” value is on record as 68.43%.

As for `Cc1cccc(/C=N/Nc2nc(N3CCOCC3)nc3c2ncn3CC(=O)c2ccc(F)cc2)c1` [Example 47, (E)-1-(4-fluorophenyl)-2-(6-(2-(3-methylbenzylidene)hydrazinyl)-2-morpholino-9H-purin-9-yl)ethan-1-one], the “ADP-Glo kinase assay (%, 10 nM)” value is 60.82%.

`Cc1cccc(/C=N/n2cnc3c(Nc4ccnc(Cl)c4)nc(N4CCOCC4)nc32)c1` [Example 193, (E)-N-(2-chloropyridin-4-yl)-9-((3-methylbenzylidene)amino)-2-morpholino-9H-purin-6-amine]: the “ADP-Glo kinase assay (%, 10 nM)” value was found to be 64.35%.

On to `Cc1cccc(-c2ccn(-c3nc(N4CCOCC4)nc4c3ncn4-c3cccc(OC4CC4)c3)n2)c1` [Example 138, 4-(9-(3-cyclopropoxyphenyl)-6-(3-(m-tolyl)-1H-pyrazol-1-yl)-9H-purin-2-yl)morpholine], for which the “ADP-Glo kinase assay (%, 10 nM)” value stood at 64.23%.

In the case of `Cc1cccc(/C=N/n2cnc3c(Nc4ccccc4)nc(N4CCOCC4)nc32)c1` [Example 180, (E)-9-((3-methylbenzylidene)amino)-2-morpholino-N-phenyl-9H-purin-6-amine], the “ADP-Glo kinase assay (%, 10 nM)” value is 63.03%.

As to `COc1ccc(/C=N/n2cnc3c(Nc4ccncc4)nc(N4CCOCC4)nc32)cc1` [Example 173, (E)-9-((4-methoxybenzylidene)amino)-2-morpholino-N-(pyridin-4-yl)-9H-purin-6-amine], the “ADP-Glo kinase assay (%, 10 nM)” value was determined as 73.94%.

In the case of `Cc1cccc(/C=N/Nc2nc(N3CCOCC3)nc3c2nc(C)n3-c2cccc(F)c2)c1` [Example 162, (E)-4-(9-(3-fluorophenyl)-8-methyl-6-(2-(3-methylbenzylidene)hydrazinyl)-9H-purin-2-yl)morpholine], the “ADP-Glo kinase assay (%, 10 nM)” value is 78.79%.

For `Cc1cccc(/C=N/Nc2nc(N3CCOCC3)nc3c2nc(C)n3-c2ccccn2)c1` [Example 164, (E)-4-(8-methyl-6-(2-(3-methylbenzylidene)hydrazinyl)-9-(pyridin-2-yl)-9H-purin-2-yl)morpholine], the “ADP-Glo kinase assay (%, 10 nM)” value is listed as 63.89%.

For `Cc1cccc(/C=N/Nc2nc(N3CCOCC3)nc3c2nc(C)n3CC(=O)c2cccnc2)c1` [Example 158, (E)-2-(8-methyl-6-(2-(3-methylbenzylidene)hydrazinyl)-2-morpholino-9H-purin-9-yl)-1-(pyridin-3-yl)ethan-1-one], the “ADP-Glo kinase assay (%, 10 nM)” value was found to be 63.93%.
